Tests used:
[1] = Auto-oxidation of APO in solution by real-time 1D 1H NMR; type: physicochemical; conditions: freshly dissolved in DPBS, 25 °C, 36 h
Description: Fig. 2 Effect of redox-sensitive APO on MLKL oligomerization. A Chemical structure of APO. APO undergoes auto-oxidation to form the oxidized form (Ox-APO), while the addition of DTT preserves the reduced form (Re-APO). The red highlights indicate the sites where APO loses hydrogen and electrons during the oxidation process. B Real-time 1D ^1H NMR spectra showing the degree of oxidation of APO. APO was dissolved from its powdered form in DPBS and incubated at 25 °C for 36 h. Real-time 1D ^1H NMR spectra were measured at a 2 h intervals after filtration through a 0.2 μm syringe filter to remove precipitates. […] C MLKL oligomerization is inhibited by APO. THP-1 cells were treated with TBZ and Re-APO or Ox-APO for 8 h. Western blot analysis of WCLs was performed under non-reducing and reducing conditions using the indicated antibodies. Percentage changes of p-MLKL oligomer band relative to GAPDH were shown. The p value for MLKL oligomer band intensity was calculated based on the average intensity of the tetramer and octamer bands. Octa octamer, Tetra tetramer, Mono monomer. Mean ± SEM (n = 3). **p < 0.001, ns not significant, one-way ANOVA. D THP-1 cells were treated with TBZ and Ox-APO or Re-APO for 8 h and then stained with DAPI and MLKL for confocal microscopy. […] The signal intensity of MLKL fluorescence from the plasma membrane to the cytosol was measured using FluoView FV1000 software. […]

[2] = tested on: THP-1 cells; assay: Released HMGB1 in supernatant of TBZ-treated cells; type: cell-based, human; conditions: TBZ-treated THP-1, different concentrations, 8 h
Description: TBZ-treated cell supernatants were harvested and centrifuged using Amicon ultra centrifugal filters 10 kDa (UFC501096, Millipore, Billerica, MA, USA) at 4000×g for 1 h. The concentrated supernatants were analyzed using SDS-PAGE to assess released HMGB1 levels.

[3] = tested on: mouse MLKL (mMLKL); assay: MLKL oligomerization Western blot in J774A.1 cells; type: cell-based; conditions: J774A.1, TBZ, 20 μM, 8 h
Description: Fig. 2 Effect of redox-sensitive APO on MLKL oligomerization. A Chemical structure of APO. APO undergoes auto-oxidation to form the oxidized form (Ox-APO), while the addition of DTT preserves the reduced form (Re-APO). The red highlights indicate the sites where APO loses hydrogen and electrons during the oxidation process. B Real-time 1D ^1H NMR spectra showing the degree of oxidation of APO. APO was dissolved from its powdered form in DPBS and incubated at 25 °C for 36 h. Real-time 1D ^1H NMR spectra were measured at a 2 h intervals after filtration through a 0.2 μm syringe filter to remove precipitates. […] C MLKL oligomerization is inhibited by APO. THP-1 cells were treated with TBZ and Re-APO or Ox-APO for 8 h. Western blot analysis of WCLs was performed under non-reducing and reducing conditions using the indicated antibodies. Percentage changes of p-MLKL oligomer band relative to GAPDH were shown. The p value for MLKL oligomer band intensity was calculated based on the average intensity of the tetramer and octamer bands. Octa octamer, Tetra tetramer, Mono monomer. Mean ± SEM (n = 3). **p < 0.001, ns not significant, one-way ANOVA. D THP-1 cells were treated with TBZ and Ox-APO or Re-APO for 8 h and then stained with DAPI and MLKL for confocal microscopy. In the intensity graph, green indicates MLKL. The signal intensity of MLKL fluorescence from the plasma membrane to the cytosol was measured using FluoView FV1000 software. Mean ± SEM (n > 100). **p < 0.01, ***p < 0.001, one-way ANOVA. E J774A.1 mouse monocytic cells were treated with TBZ and 20 μM Re-APO or Ox-APO for 8 h. Western blot analysis of WCLs was performed under non-reducing and reducing conditions using the indicated antibodies.
The cells were harvested and lysed in 1× RIPA buffer (R4100-010, GenDEPOT, Katy, TX, USA) containing protease (P3100-001, GenDEPOT) and phosphatase (1862495, Thermo Fisher Scientific) inhibitors. WCLs were then centrifuged at 20,000×g for 30 min at 4 °C and subjected to non-reducing or reducing 8–12% SDS-PAGE gel electrophoresis. The membrane was blocked with 5% non-fat milk in TBS and probed with antibodies. Antibodies to hMLKL (14993S), mMLKL (97705S), phospho-hMLKL (Ser358) (91689S), phospho-mMLKL (Ser345) (37333S), phospho-hRIP1 (Ser166) (65746S), mRIP1 (3493S), phospho-mRIP1 (Ser321) (38662S), phospho-hRIP3 (Ser227) (93654), mRIP3 (95702S), p-mRIP3 (Thr231/Ser232) (91702S), and LDH (2012S) (Cell Signaling Technology, Danvers, MA, USA), and GAPDH (LF-PA0018, Abfrontier, S. Korea), hRIP1 (ab72139, Abcam, Cambridge, UK), hRIP3 (sc-135170, Santa Cruz Biotechnology, Dallas, TX, USA), HMGB1 (ab78923, Abcam), and LAMP1 (ab24170, Abcam) antibodies were used.

[4] = target: T1, Nt-hMLKL^F148A (Homo sapiens, UniProt Q8NB16, F148A); assay: SPR binding to Nt-hMLKL F148A mutant; conditions: versus Nt-hMLKL
T1 construct: an N-terminal domain (Nt-hMLKL, amino acids 2–154, MW: 23 kDa) involved in oligomerization; His (N); made in house; host or cells: E. coli BL21
Text: The hMLKL plasmid (RC213152, OriGene, Rockville, MD, USA), and recombinant Wt-hMLKL (ab241453, Abcam) and Wt-mMLKL (MBS1379843, MyBioSource, San Diego, CA, USA) proteins were purchased. Nt-hMLKL (2–154), Nt-mMLKL (1–180), and Ct-hMLKL (183–471) were generated using the pBT7-N-His vector. Nt-hMLKL^C86A, Nt-hMLKL^F148A, -hMLKL^C86A/L89A/D94A, and Nt-hMLKL^R145A/R146A/F148A/M150A were generated using the Site-directed Mutagenesis Kit (EZ004S, Enzynomics, S. Korea). These constructs were subcloned into pBT7-N-His and pET-15b plasmid vectors. E. coli BL21 cells transformed with the cloned expression vectors were cultured in LB medium and supplemented with 100 μg/mL ampicillin until an OD at 600 nm of 0.5–0.6 was reached. The cultures were induced by 1 mM IPTG (367-93-1, Sigma-Aldrich). The cells were lysed and centrifuged. The clear supernatants were subjected to Ni-NTA affinity chromatography (175018169, QIAGEN, Hilden, Germany). Plasmids encoding mMLKL (1–464)–gyrase fusion constructs were kindly provided by Prof. […]
The interactions of Wt-hMLKL, Wt-mMLKL, Nt-mMLKL, Nt, and Ct-hMLKL proteins with Re-APO or Ox-APO were detected through SPR analysis using Biacore™ T200 (Cytiva, Marlborough, MA, USA). […] Sensorgrams were recorded and analyzed in real-time using the control software in the BIAcore T200 system. All data were analyzed using the BIA evaluation software (Cytiva).

T1 sequence (Q8NB16 2-154 F148A): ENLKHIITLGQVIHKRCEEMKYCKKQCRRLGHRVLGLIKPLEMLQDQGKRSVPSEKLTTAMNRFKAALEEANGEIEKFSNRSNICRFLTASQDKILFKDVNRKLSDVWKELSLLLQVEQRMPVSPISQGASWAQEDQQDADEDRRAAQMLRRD

In the case of CN1CCc2cccc3c2[C@@H]1Cc1ccc(O)c(O)c1-3 [S62, (6aS)-6-methyl-5,6,6a,7-tetrahydro-4H-dibenzo[de,g]quinoline-10,11-diol], the “time to saturation of APO oxidation” value [1] is reported as 24 h and the HMGB1 release [2] is reported as “dose-dependently decreased”.
For CN1CCc2cccc3c4c(cc1c23)C=CC(=O)C4=O [Ox-APO], the “formation of mMLKL tetramers and octamers” value [3] was “strongly prevented”, the “phosphorylation of mRIP1, mRIP3 and mMLKL” value [3] was “little effect” and the “fold weaker binding of single mutant” value [4] was ~ 10 fold.
For CN1CCc2cccc3c2C1Cc1ccc(O)c(O)c1-3 (stereo not shown) [Re-APO], the “formation of mMLKL tetramers and octamers” value [3] was “strongly prevented” and the “phosphorylation of mRIP1, mRIP3 and mMLKL” value [3] was “little effect”.

Source: PMC12518639, “Apomorphine is a novel necroptosis inhibitor targeting mixed lineage kinase domain-like protein oligomerization” (Cell Death Discovery, 2025)
